Laboratory results taken from patent publication US20230242654A1, “REAGENTS FOR EXPANDING CELLS EXPRESSING RECOMBINANT RECEPTORS” (Juno Therapeutics, Inc., priority 2017, published 2023).

What was measured:
anti-BCMA CAR+ T cells [1] = assay: Cell count and CTV proliferation after BCMA-conjugated bead stimulation; assay type: cell-based, human; settings: 5 μM lenalidomide
Protocol: (§1) Cryofrozen anti-BCMA CAR T cells, produced substantially as described in Example 2 and formulated at a 1:1 ratio of CD4+ and CD8+ T cells, were thawed. Unless otherwise indicated, beads (diameter about 4.5 μm) from a 5 μg/ml or 50 μg/ml BCMA-conjugated bead composition, generated as described in Example 1, were added to the wells at a ratio of T cells to beads of 1:2 in the presence or absence of 5 μM lenalidomide. Cells were incubated up to 14 days and analyzed at various time points for cytokine secretion, cell expansion by flow cytometry for the EGFRt surrogate marker, and for cytolytic activity.
Total cell count, monitored at day 4 (FIG. 9G) and day 7 (FIG. 9H), was increased following stimulation of anti-BCMA CAR+ T cells with beads from a 50 μg/mL BCMA-conjugated bead composition, but not 5 μg/mL BCMA-conjugated bead composition, compared to the cells present at the time of initiation of the incubation (dashed line).
To further assess proliferation, the cells containing anti-BCMA CAR-expressing T cells were labeled with the proliferation marker dye CELLTRACE VIOLET (CTV; ThermoFisher Scientific, Waltham Mass.) in accordance with the manufacturer's protocol prior to incubation with the BCMA-conjugated beads. Proliferation was assessed by dye dilution using flow cytometry on cells that were stimulated with beads from the 50 μg/mL BCMA-conjugated bead composition.

RPMI-8226 target cells [2] = assay: Cytolytic activity and cytokine production of bead-prestimulated CAR-T cells on target cells; assay type: cell-based
Protocol: (§2) Anti-BCMA CAR-T cells, generated from samples from representative healthy donors or multiple myeloma patient derived material, and cultured with 50 μg/mL BCMA-Fc conjugated beads (generated as described in Example 1) at a ratio of 1:1 bead:CAR+ T cell for 7 days, in the presence of […] lenalidomide or a vehicle control. Expression of CD25, PD-1, Tim3 and Lag3 on CAR T cells (using an antibody for surrogate CAR marker) cultured under the different conditions then was assessed by flow cytometry.
Specifically, for pretreated cells in which pretreatment had been conducted in the presence of lenalidomide, the cells were cultured with the target cells in the presence of lenalidomide; likewise, for pretreated cells in which pretreatment had been conducted in the presence of vehicle, cells were cultured with the target cells in the presence of vehicle. Following the co-culture, cytolytic activity was assessed by measuring the loss of viable target cells over a period of seven days, as determined by red fluorescent signal. Percentage killing was normalized to anti-BCMA CAR T cells prestimulated on beads in the presence of vehicle. Cytokine production was assessed by ELISA from supernatant following culture with target cells for 24 hours. Experiments were performed twice in 3 donors. […]

anti-BCMA CAR+ T cells [3] = assay: Expansion of EGFRt+ cells after BCMA-conjugated bead stimulation; assay type: cell-based, human; settings: 5 μM lenalidomide
Protocol: as §1
Four days and seven days after addition of BCMA-conjugated beads, the incubated cells were stained with CD4 or CD8 and with an anti-EGFR antibody to determine the percentage of cells positive for EGFRt as a surrogate for CAR+ T cells. At the time of plating, 26% of the CD4+ cells expressed anti-BCMA CAR and 39% of the CD8+ cells expressed anti-BCMA CAR as determined by staining with BCMA-Fc. The percent of EGFRt+CD4+ T cells increased from about 26% at the initiation of the incubation to greater than 40% by day 4 (FIG. 9J) and greater than 60% by day 7 (FIG. 9K) when the cells were incubated in the presence of beads from a 50 μg/mL BCMA-conjugated bead composition. […]

anti-BCMA CAR T cells [4] = assay: Cytokine production after 24 hours BCMA bead stimulation with or without lenalidomide; assay type: cell-based, human
Protocol: In another study, recombinant human BCMA-conjugated beads were used to stimulate CAR T cells at various concentrations to titrate the magnitude of stimulation, either low ([…]), medium ([…]), and high (200 μg/mL) stimulation. […] Cells were stimulated with BCMA conjugated beads for 24 hours in the presence of 0.1 μM or 1.0 μM lenalidomide, or vehicle control. A protein transport inhibitor was added in the final hours of incubation, and cells were stained for intracellular IL-2, IFN-γ, and TNF-α.

anti-BCMA CAR T cells [5] = assay: Cytokines in culture supernatant 24 hours after addition of BCMA-conjugated beads; assay type: cell-based, human
Protocol: as §1
Twenty four hours after addition of BCMA-conjugated beads, the presence of TNF-α, IFNγ, and IL-2 in culture supernatants was assessed.
In a further exemplary study, two different anti-BCMA CAR T cell compositions were generated from different donors, each containing T cells expressing the same anti-BCMA CAR. The cells were thawed and incubated with beads (diameter about 4.5 μm) from a 5 μg/mL or 200 μg/mL BCMA-conjugated bead composition generated as described in Example 1. The incubation was carried out at a ratio of T cells to beads of 1:1 in the presence or absence of 1 μM or 5 μM lenalidomide. Twenty four hours after addition of BCMA-conjugated beads, IL-2 production by the anti-BCMA CAR+ T cells was assessed in culture supernatants.

Anti-BCMA CAR-T cells = assay: Phenotype of anti-BCMA CAR T cells stimulated 7 days on BCMA beads with or without lenalidomide; assay type: cell-based, human
Protocol: as §2

[6] = tested on: Healthy donor-or patient-derived CART cells; assay: Cytokine production on BCMA or BCMA/PD-L1 conjugated beads; assay type: cell-based, human; settings: 1 μM, in the presence of PD-L1; versus vehicle
Protocol: In another study, cells were cultured in the presence of BCMA beads generated as described in Example 1, with or without additional conjugation of human recombinant PD-L1-Fc. Healthy donor-or patient-derived CART cells were stimulated in the presence of BCMA-conjugated beads or BCMA/PD-L1 conjugated beads for 24 hours in the presence of 1 μM lenalidomide. Cytokine production was measured in the supernatant. […] The results were consistent with a conclusion that anti-BCMA CAR-T cytokine production following incubation with BCMA-conjugated beads was increased by lenalidomide in the presence of PD-L1-mediated inhibition.

RPMI-8226 target cells [7] = assay: Cytolytic activity and IFN-gamma against target cells after bead incubation; assay type: cell-based
Protocol: Cytolytic activity of CAR+ T cells after incubation with BCMA-conjugated beads was assessed by incubation with the BCMA-expressing target cell line RPMI-8226, which is a BCMA+ multiple myeloma cell line. After seven days of incubation of anti-BCMA CAR+ T cells with BCMA-conjugated beads (5 μg/ml or 50 μg/ml) in the presence or absence of lenalidomide, the beads were removed from the cultures and the cells were plated with the RPMI-8226 target cells at a ratio of effector cells to target cells of 3:1 or 1:1 in the further presence or absence of 5 μM lenalidomide. To perform the cytolytic assay, the target RPMI-8226 cells were labeled with NucLight Red (NLR) to permit tracking of target cells by microscopy. Cytolytic activity was assessed by measuring the loss of viable target cells over a period of four days, as determined by red fluorescent signal (using the INCUCYTE® Live Cell Analysis System, Essen Bioscience). The number of viable cells was normalized to cells at day 0 prior to incubation with the RPMI-8226 target cells.
In a further exemplary study, anti-BCMA CAR+ T cells were untreated, or were incubated for 24 hours or for seven days with beads (diameter about 4.5 μm) from a 50 μg/mL BCMA-conjugated bead composition generated as described in Example 1 at a ratio of beads to cells of 1:1. The anti-BCMA CAR T+ cells were removed from the cultures and incubated with RPMI-8226 target cells at a 0.3:1 or 1:1 effector cell to target cell ratio. To assess cytokine response to the target cells after incubation with BCMA-conjugated beads, IFN gamma levels were measured in the supernatant.

anti-BCMA CAR+ T cells [8] = assay: Surface markers and proliferation at different T cell:bead ratios with or without lenalidomide; assay type: cell-based, human
Protocol: In another experiment, approximately 1.5×10^6 CAR+ T cells, prepared as described above, were added to wells of a 12-well plate and were incubated with beads from a 200 μg BCMA-conjugated bead composition at a ratio of CAR+ T cell to BCMA-conjugated bead of 1:0.3, 1:1 or 1:3 (approximately 0.5×10^6, 1.5×10^6, and 4.5×10^6 beads per well, respectively). As controls, 5 μg/mL anti-CD3 antibody was coated to wells (sub-optimal concentration for stimulation) or cells were seeded in the absence of any agent (no stimulation control). Each condition was incubated in the presence or absence of 5 μM lenalidomide. […] […] There also was a slight increase in PD-1 surface expression on CD8+ cells when stimulated with BCMA-conjugated beads at the higher BCMA bead concentration provided at the ratio of 1:3 CAR+ T cells to beads. The results are consistent with a finding that the BCMA concentration present during the incubation can differentially modulate surface marker expression on the CAR+ T cells.

RPMI-8226 = assay: Serial restimulation with BCMA-conjugated beads, then cytolytic activity; assay type: cell-based
Protocol: Anti-BCMA CAR T cell compositions were generated from three different donors, each containing T cells expressing the same anti-BCMA CAR, thawed, and were incubated for seven days with beads (diameter about 4.5 μm) from a 50 μg/mL BCMA-conjugated bead composition generated as described in Example 1 at a 1:1 ratio of beads to cells. The incubation was carried out in the presence of 5 μM lenalidomide or in the absence of lenalidomide (vehicle control). Cells were harvested after 7 days and replated for three further rounds up to 28 days, each round involving resetting to initial seeding density and incubating for an additional 7 days in the presence of the same concentration of lenalidomide.
At each reset after the pretreatment, cytolytic activity was assessed by incubation with the BCMA-expressing target cell line RPMI-8226 (labeled with NucLight Red (NLR)) at an effector to target cell (E:T) ratio of 1:1 in the further presence of or absence of lenalidomide. Cytolytic activity was assessed by measuring the loss of viable target cells over a period of up to 80-150 hours, as determined by red fluorescent signal (using the IncuCyte® Live Cell Analysis System, Essen Bioscience). Cells from each condition were plated in triplicate. The % cell killing compared to vehicle only control (set at 100%) was determined.

[9] = medium stimulation (50 μg BCMA beads), 24 hours, 1 μM

Nc1cccc2c1CN(C1CCC(=O)NC1=O)C2=O (stereo not shown) [lenalidomide]
proliferation (cell count) (anti-BCMA CAR+ T cells [1]; 50 ug beads, day 7): small increase in proliferation | proliferation as assessed by CTV dilution (anti-BCMA CAR+ T cells [1]; 50 μg/mL beads, day 4 but not day 7): slight delay in proliferation | cytokine production (RPMI-8226 target cells [2]; 1 μM lenalidomide during prestimulation versus vehicle): trend toward increased cytokine production | cytolytic function (RPMI-8226 target cells [2]; 1 μM lenalidomide during the prestimulation period): preserved cytolytic function | extent of CAR+ T cell expansion (anti-BCMA CAR+ T cells [3]): did not substantially impact the extent of CAR+ T cell expansion | percentage of IFN-γ+ and TNF-α+ intracellular staining (anti-BCMA CAR T cells [4]; 0.1 μM or 1.0 μM, all stimulation levels, CD4+ and CD8+): increased the percentage | percentage of IL-2+ CAR+ T cells (anti-BCMA CAR T cells [4]; 5-μg stimulation): increasing the percentage | percentage of IL-2+ CAR+ T cells (anti-BCMA CAR T cells [4]; 50-μg and 200-μg stimulation): decreasing the percentage | CAR T cytokine production (anti-BCMA CAR T cells [4]; absence of stimulation): had no effect on CAR T cytokine production | increase in IL-2 concentration compared with vehicle control (anti-BCMA CAR T cells [4]; [9]): 200% | increase in TNF-α concentration compared with vehicle control (anti-BCMA CAR T cells [4]; [9]): 200% | IFN-γ concentration compared with vehicle control (anti-BCMA CAR T cells [4]; medium stimulation, 24 hours): donor-dependent increases | cytokine (IL-2) production (anti-BCMA CAR T cells [5]; 1 μM or 5 μM, 200 or 5 μg/mL beads): increased cytokine production in the presence of both the high and low antigen stimulation | BCMA-induced CAR+ T cell cytokine production (anti-BCMA CAR T cells [5]; 5 μM lenalidomide, 24 hours): increased BCMA-induced CAR+ T cell cytokine production | CAR+ viability (Anti-BCMA CAR-T cells; 1 μM, 7 days on 50 μg/mL BCMA beads, 3 healthy donors): significantly increased CAR+ viability | surface CD25 expression (MFI) (Anti-BCMA CAR-T cells; 1 μM, 7 days on BCMA beads): increasing CD25 expression | surface PD-1 expression (MFI) (Anti-BCMA CAR-T cells; 1 μM, 7 days on BCMA beads): reduced PD-1 expression | total cell count (Anti-BCMA CAR-T cells; 1 μM, 7 days on BCMA beads): did not alter the total cell count | percentage positive for Lag3 expression (Anti-BCMA CAR-T cells; CD4+ and CD8+ CAR+ populations): increased | percentage of PD-1+ cells (Anti-BCMA CAR-T cells; CD4+ population): decrease in the percentage of PD-1+ cells | surface expression of Tim3 (Anti-BCMA CAR-T cells; CD8+ population): increased the surface expression of Tim3 | percentage CAR+ (Anti-BCMA CAR-T cells; vehicle- versus lenalidomide-treated): no significant differences | secreted cytokine levels [6]: potentiated secreted cytokine levels | target cell viability (RPMI-8226 target cells [7]; RPMI 8226 cells cultured in the presence of lenalidomide, no T cells): did not directly influence target cell viability | cytolytic activity of the CAR+ T cells (RPMI-8226 target cells [7]; lenalidomide during the seven day bead incubation prior to the killing assay): increased cytolytic activity of the CAR+ T cells | killing activity (RPMI-8226 target cells [7]; lenalidomide present during the cell killing assay): did not substantially affect killing activity | proliferative capacity of T cells (CTV) (anti-BCMA CAR+ T cells [8]; 5 μM, three days with 200 μg BCMA beads at 1:1, versus vehicle): increased the proliferative capacity of T cells | surface expression of CD25 in CD4+ and CD8+ T cells (anti-BCMA CAR+ T cells [8]; lenalidomide present during BCMA bead or anti-CD3 stimulation): further increased the extent of surface expression of CD25 | killing efficacy (RPMI-8226; further donor (FIG. 10B), all time points): increased killing efficacy | cytolytic activity (RPMI-8226; preincubated with 5 μM lenalidomide 7 or 14 days, exemplary donor): exhibited greater cytolytic activity | killing efficacy (RPMI-8226; preincubated with lenalidomide 14 or 21 days compared to day 7): overall decrease in killing efficacy
